Source: patent US8778889B2, “Antimicrobial decapeptide oral hygiene treatment” (The United States of America as represented by the …, priority 2003, dated 2014)
Ends that are not written are not given here.

Assays:
[1] = system: oral biofilms formed on saliva-coated HA disks by salivary bacteria; experiment: In vitro plaque assay, viable counts of oral biofilms on saliva-coated HA disks; format: cell-based, human salivary bacteria; details: KSL 200 μg/ml
Source text: In conjunction with the dual flow cell system, a modification of an in vitro plaque model of biofilm formation described by Guggenheim et al. (Guggenheim et al., 2001) was used to determine the effects of tested antimicrobials and other agents on developed oral biofilms (see Appendix I for details). HA disks (Clarkson, south Williamsport, Pa.) were employed as substrates for salivary bacteria to form biofilms.
To determine the inhibitory activity of KSL on developed oral biofilms, disks containing 45 h-old biofilms were transferred to wells containing aqueous KSL (200 μg/ml; 1 ml/well). Following 30 min exposure at 37° C., disks were rinsed with 3×1 ml of saline and transferred to sterile 15 ml polypropylene tubes containing 1 ml PBS. Biofilm cells adherent to surfaces (after treatment) were recovered by sonicating for 2 min at 5 watts with a Microson ultrasonic cell disrupter equipped with a cup horn (Misonix Inc., Farmingdale, N.Y.). Settings including the time interval used in the sonication were predetermined empirically to yield maximal recovery of adherent biofilm cells.
The effect of KSL on disrupted biofilms was assessed by recovering biofilm cells from HA disks (45 h-old biofilms) through sonication as described above. The detached biofilm cells (in sterile dH2O) were mixed with an equal volume of aqueous KSL to obtain a final peptide concentration of 200 μg/ml, and the reaction mixtures incubated at 37° C. for 30 min. The interactions of KSL and suspended biofilm cells were terminated by washing in PBS.
To determine the effect of the surface-active agent (benzalkonium chloride; Sigma, St. Louis, Mo.) in promoting the killing of intact biofilms by KSL, 66 h-old oral biofilms were treated with KSL (200 μg/ml), benzalkonium chloride (0.001%), or a combination of the two agents, followed by viable counts determinations and confocal laser scanning microscopy of treated samples.
Viable counts of biofilm cells derived from treated disks or disrupted biofilms were determined by spiral plating serially diluted samples onto blood agar plates. Distilled water or 0.12% aqueous chlorhexidine digluconate (Sigma) was used as the negative or positive control, respectively. The 45 h-old biofilms were exposed to chlorhexidine for 1 min, and to water for 30 min at 37° C.
In this assay, HA disks (Clarkson Chromatography Products, Inc., South Williamsport, Pa.) were used as surfaces on which plaque formation can occur. Before use, sterile HA disks were conditioned in the wells of a 24-well microtiter plate (Becton Dickinson, Franklin Lakes, N.J.) containing 50% sterile saliva by incubating at room temperature for a minimum of two hours on a rotating platform at 95 rpm. The saliva was removed and each well inoculated with isolated salivary bacteria at a bacterial cell concentration of 1.0×10^7 cells/ml in sterile 50% whole saliva. After two hours of incubation (with rotation) at 37° C. to allow the bacteria to adhere to surfaces, unattached bacteria were removed and replaced with supplemented saliva-based medium. The plates were incubated with rotation at 37° C. for 45 h (with medium replaced three times), or 66 h (with medium replaced five times) in a CO2 incubator prior to treatments, and the recovery of biofilm cells from treated or untreated disks.
In these studies, KSL or KSL-W was used at 200 μg/ml, whereas Bzl and CPC were used at 0.001% and 0.0025%, respectively. […]

A. baumannii WRAMC #2 = format: cell-based, Acinetobacter baumannii
Procedure, shortened: (§1)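 Antimicrobial peptides were tested against drug-resistant clinical isolates by broth microdilution. Values are reported as minimum inhibitory concentration (MIC) and minimum bactericidal concentration (MBC).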

A. baumannii WRAMC #18 = format: cell-based, Acinetobacter baumannii
Procedure, shortened: as §1

A. baumannii WRAMC #13 = format: cell-based, Acinetobacter baumannii
Procedure, shortened: as §1

A. baumannii WRAMC #4 = format: cell-based, Acinetobacter baumannii
Procedure, shortened: as §1

A. baumannii ATCC #19606 = format: cell-based, Acinetobacter baumannii
Procedure, shortened: as §1

For “KKVVFKVKFK-NH2 [KSL, Lys-Lys-Val-Val-Phe-Lys-Val-Lys-Phe-Lys-NH2]”, the “reduction of viability, disrupted biofilms, versus dH2O-treated control cells” value ([1]; 45 h-old biofilms disrupted by sonication, 30 min, 37° C.) was 1.8 log, the “effect on viability of intact biofilms compared to water treatment” value ([1]; 66 h-old oral biofilms, benzalkonium chloride 0.001%) was “less effect on the viability” and the “reduction of viable counts, intact biofilms” value ([1]; intact 45-h-old biofilms, 30 min, 37° C.) was “small reduction of viable counts”. The MBC (A. baumannii WRAMC #2) was 100 µg/mL, the MBC (A. baumannii WRAMC #18) was 200 µg/mL and the MIC (A. baumannii WRAMC #18) was 50 µg/mL. The MBC (A. baumannii WRAMC #13) was 200 µg/mL, the MIC (A. baumannii WRAMC #13) was 50 µg/mL and the MBC (A. baumannii WRAMC #4) was 25 µg/mL. For the same substance, the MIC (A. baumannii WRAMC #4) was 12.5 µg/mL, the MBC (A. baumannii ATCC #19606) was 200 µg/mL and the MIC (A. baumannii ATCC #19606) was 100 µg/mL.
